Measurements from patent publication US20180100153A1, “Method and kit for use in inhiiting tumor progression, predicting or determining tumor progression state in VGF expressing cancers” (Truebio LLC, priority 2016, published 2018).

Tests used:
HCC827GR cells [1] = assay: IC50 analysis via alamarBlue assay, HCC827GR versus HCC827; format: cell-based
[2] = test system: HCC827GR/tet-on control cells; assay: Xenograft assay with doxycycline; format: in vivo, nude mice; details: daily oral Dox for 30 days
Description: FIG. 13 illustrates VGF as a therapeutic target. (FIG. 13A) Q-PCR (left) analysis for VGF expression and clonogenic assay (right) in HCC827GR/tet-on control cells. […] (FIG. 13B) Xenograft assay for assessing the effect of doxycycline treatment on tumor growth. HCC827GR/tet-on control cells were injected subcutaneously into nude mice. 32 days after cancer cell injection, mice were treated with or without daily oral doxycycline (Dox) for another 30 days. Tumor volume was monitored over time as indicated (left). Tumor weight was measured after harvest (upper right). The representative photographs illustrate tumor growth 30 days after Dox or normal saline treatment (lower right). ns means no significant (n=6 mice/group). (FIG. 13C) Q-PCR (left) analysis for VGF expression and clonogenic assay (right) in HCC827GR/tet-on shVGF cells in which shVGF was induced by doxycycline (Dox). […] HCC827GR/tet-on-shVGF cells were injected subcutaneously into nude mice. 32 days after cancer cell injection, mice were treated with or without daily oral doxycycline (Dox) for another 30 days. Tumor volume was monitored over time as indicated (left). Tumor weight was measured after harvest (upper right). The representative photographs illustrate tumor growth 30 days after Dox or normal saline treatment (lower right). Scale bar, 1 mm. Error bars indicate the SEM (n=6 mice/group; *P<0.05). […]

[3] = test system: lung adenocarcinoma harboring EGFR mutations (exon 19 deletions or the L858R mutation); details: References 5 to 10; cited from earlier work
[4] = test system: HCC827GR cells infected with shVGF; assay: alamarBlue cell viability assay after VGF knockdown; format: cell-based; details: HCC827GR cells with VGF-silencing, gefitinib 3 days, FIG. 3F
From the text: FIG. 3 illustrates expression of VGF in EGFR-TKI resistant lung cancer cells. […] Tubulin served as a loading control. (FIG. 3B) Q-PCR analysis (left) for measuring the expression of VGF in HCC827GR-2, an independently selected EGFR-TKI resistant HCC827 pool, versus and HCC827 cells. Tubulin served as a loading control. Gene expression analysis (right) for VGF expression in HCC827 and EGFR-TKI resistant clones (ER3 and T15-2) from the database of GSE38310. (FIG. 3C) Gene expression analysis for VGF expression in different subtypes of lung cancer cell lines from the database of […] (CCLE). SCLC: small cell lung cancer; ADC: adenocarcinoma; SCC: squamous cell carcinoma. […] (FIG. 3E) Q-PCR analysis (left) and western blotting (right) for measuring VGF expression in HCC827GR cells infected with lentiviral vectors encoding shVGF (shVGF) or scrambled control (SC). shVGF#1 and shVGF#2 target different regions in VGF mRNA.
To identify genes involved in EGFR-TKI resistance and EMT in lung adenocarcinoma, a gene expression profiling assay followed by Q-PCR analysis were performed in HCC827GR versus HCC827 cells (FIG. 3A, upper). […] . […] Consistently, the expression of VGF was elevated in the independently isolated TKI resistance HCC827 cells (FIGS. 3B and 10). […] The inventors further examined VGF levels in cell lines derived from different subtypes of lung cancer. […] .

HCC827GR cells [5] = assay: Western blot of apoptosis markers (activated caspase 3, cleaved PARP); format: cell-based; details: gefitinib 1 μM, 24 hr
HEK293T cells = assay: Clonogenic analysis of VGF mutants under low serum stress; format: cell-based; details: transfected HEK293T cells, DMEM with 1% FBS, 10 days
From the text: FIG. 18 illustrates effect of VGF mutants on low serum stress. (FIG. 18A) Schematic representation of VGF deletion mutations (FIG. 18B) A table summarizing clonogenic analysis of HEK293T cells transfected with expression vector encoding empty control (Ctrl), full-length VGF cDNA (VGF), or truncated VGF cDNA as described in the FIG. 18A under the growth of DMEM supplement with 1% FBS for 10 days.
The effect of VGF mutants on low serum stress was examined (FIG. 18). Clonogenic analysis of HEK293T cells transfected with expression vector encoding empty control, full-length VGF cDNA, or truncated VGF cDNA under the growth of DMEM supplement with 1% FBS for 10 days were summarized in FIG. 18B.

Molecule: C=CC(=O)Nc1cc(Nc2nccc(-c3cn(C)c4ccccc34)n2)c(OC)cc1N(C)CCN(C)C [AZD9291]
- IC50 analysis (EGFR-TKI resistance) (HCC827GR cells [1]): resistance

Molecule: C[C@H]1c2cccc(O)c2C(=O)C2=C(O)[C@]3(O)C(=O)C(C(N)=O)=C(O)[C@@H](N(C)C)[C@@H]3[C@@H](O)[C@@H]21 [Dox, doxycycline]
- tumor growth [2]: no effect

Molecule: C#Cc1cccc(Nc2ncnc3cc(OCCOC)c(OCCOC)cc23)c1 [erlotinib]
- therapeutic response [3]: profound therapeutic responses

Molecule: COc1cc2ncnc(Nc3ccc(F)c(Cl)c3)c2cc1OCCCN1CCOCC1 [gefitinib]
- cell viability (sensitivity to gefitinib) [4]: sensitive
- expression of activated caspase 3 and PARP (apoptosis) (HCC827GR cells [5]): resistant to gefitinib-induced apoptosis

B1: VGF 1-615: full length VGF, expressed from full-length VGF cDNA vector (protein, UniProt O15240 1-615, looked up)
chain: MKALRLSASALFCLLLINGLGAAPPGRPEAQPPPLSSEHKEPVAGDAVPGPKDGSAPEVRGARNSEPQDEGELFQGVDPRALAAVLLQALDRPASPPAPSGSQQGPEEEAAEALLTETVRSQTHSLPAPESPEPAAPPRPQTPENGPEASDPSEELEALASLLQELRDFSPSSAKRQQETAAAETETRTHTLTRVNLESPGPERVWRASWGEFQARVPERAPLPPPAPSQFQARMPDSGPLPETHKFGEGVSSPKTHLGEALAPLSKAYQGVAAPFPKARRPESALLGGSEAGERLLQQGLAQVEAGRRQAEATRQAAAQEERLADLASDLLLQYLLQGGARQRGLGGRGLQEAAEERESAREEEEAEQERRGGEERVGEEDEEAAEAEAEAEEAERARQNALLFAEEEDGEAGAEDKRSQEETPGHRRKEAEGTEEGGEEEDDEEMDPQTIDSLIELSTKLHLPADDVVSIIEEVEEKRKRKKNAPPEPVPPPRAAPAPTHVRSPQPPPPAPAPARDELPDWNEVLPPWDREEDEVYPPGPYHPFPNYIRPRTLQPPSALRRRHYHHALPPSRHYPGREAQARRAQEEAEAEERRLQEQEELENYIEHVLLRRP
modifications: full-length
notes: full length VGF, expressed from full-length VGF cDNA vector
- cell survival in clonogenic analysis (HEK293T cells): survived
